From patent publication US7915284B2, “2-aryl-6-phenylimidazo[1,2-a]pyridine derivatives, preparation thereof and therapeutic use thereof” (Sanofi-Aventis, priority 2006, dated 2011) come the findings set out here.

The target of the test is T1, mouse Nurr1 receptor (Mus musculus, UniProt Q06219).
T1 construct: endogenously expressing the mouse Nurr1 receptor; host or cells: Neuro-2A (N2A) mouse neuroblastoma cells stably transfected with 8NBRE-luciferase
Nature of the test: In vitro activity on N2A cells (NBRE-luciferase reporter). In kind it is cell-based. Conditions: N2A cell line endogenously expressing mouse Nurr1, stably transfected with 8NBRE-luciferase; 24 hours incubation. The method, then:
Evaluation of the In Vitro Activity on N2A Cells
Assays consisted in measuring the in vitro activity of the compounds of the invention on a cell line (N2A) endogenously expressing the mouse Nurr1 receptor and stably transfected with the NOT binding response element (NBRE) coupled to the luciferase reporter gene. The EC50 values are between 0.01 and 1000 nM. The assays were carried out according to the procedure described below.
The Neuro-2A cell line comes from a standard commercial source (ATCC). The Neuro-2A clone was obtained from a spontaneous tumour originating from an A albino mouse strain, by R. J Klebe et col. This Neuro-2A line is subsequently stably transfected with 8NBRE-luciferase. The N2A-8NBRE cells are cultured until confluence in 75 cm^2 culture flasks containing DMEM supplemented with 10% of foetal calf serum, 4.5 g/l of glucose and 0.4 mg/ml of geneticin. After a week of culture, the cells are recovered with 0.25% trypsin for 30 seconds and then resuspended in DMEM without phenol red, containing 4.5 g/l of glucose and 10% of Hyclone delipidized serum, and deposited into transparent-bottom 96-well white plates. The cells are deposited at a rate of 60 000 per well in 75 μl for 24 hours before the addition of the products. The products are applied in 25 μl and incubated for a further 24 hours. On the day of the measurement, an equivalent volume (100 μl) of Steadylite are added to each well and then left for a period of 30 minutes in order to obtain complete cell lysis and maximum signal production. The plates are subsequently measured in a luminescence counter for microplates after having been sealed with an adhesive film. The products are prepared in the form of a stock solution at 10^−2M and then diluted in 100% of DMSO. Each product concentration is prediluted in culture medium before incubation with the cells, thus containing 0.625% final concentration of DMSO.

T1 sequence (Q06219 whole entry): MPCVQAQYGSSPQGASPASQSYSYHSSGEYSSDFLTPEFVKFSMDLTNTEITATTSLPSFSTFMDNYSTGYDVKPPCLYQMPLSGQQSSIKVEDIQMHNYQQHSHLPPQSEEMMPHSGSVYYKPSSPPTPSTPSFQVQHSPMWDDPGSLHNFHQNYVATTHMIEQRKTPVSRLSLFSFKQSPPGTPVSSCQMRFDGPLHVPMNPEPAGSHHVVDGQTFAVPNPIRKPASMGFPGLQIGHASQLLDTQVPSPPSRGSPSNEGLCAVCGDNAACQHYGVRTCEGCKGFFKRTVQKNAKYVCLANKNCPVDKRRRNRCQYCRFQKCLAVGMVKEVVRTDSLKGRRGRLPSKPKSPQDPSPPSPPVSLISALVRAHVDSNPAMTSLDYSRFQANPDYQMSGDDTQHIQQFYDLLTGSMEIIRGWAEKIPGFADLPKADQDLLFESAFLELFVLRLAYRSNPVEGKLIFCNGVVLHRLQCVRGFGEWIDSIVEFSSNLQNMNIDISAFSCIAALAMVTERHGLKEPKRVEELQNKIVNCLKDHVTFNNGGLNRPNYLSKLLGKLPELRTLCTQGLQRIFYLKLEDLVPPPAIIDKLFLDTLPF

In turn, `COCCOCc1cccc(-c2ccc3nc(-c4ccc5ccccc5c4)cn3c2)c1` [Compound 17, 6-[3-(2-Methoxyethoxymethyl)phenyl]-2-(naphthalen-2-yl)imidazo[1,2-a]pyridine] yielded an EC50 of 3.6 nM.
In turn, `Cc1ccc(-c2cn3cc(-c4cccc(COc5ccc(Cl)cc5)c4)ccc3n2)cc1` [Compound 31, 6-[3-(4-Chlorophenoxymethyl)phenyl]-2-p-tolylimidazo[1,2-a]pyridine] displayed a concentration giving a half-maximal response (EC50) of 14 nM.
As for `CC(C)(O)c1cccc(-c2ccc3nc(-c4ccc(Cl)cc4)cn3c2)c1` [Compound 39, 2-{3-[2-(4-Chlorophenyl)imidazo[1,2-a]pyridin-6-yl]phenyl}propan-2-ol], it took 0.7 nM to reach a half-maximal effect (EC50).
Take `OCc1ccccc1-c1ccc2nc(-c3ccc(Cl)cc3)cn2c1` [Compound 40, {2-[2-(4-Chlorophenyl)imidazo[1,2-a]pyridin-6-yl]phenyl}methanol]: the 50% effective concentration (EC50) amounted to 0.7 nM.
